Assay results as given in patent publication US20050165025A1, “Combination therapy with 5HT 1A and 5HT 1B-receptor antagonists” (Recordati Ireland Ltd., priority 2004, published 2005).
Like-named read-outs stand apart in the source and are kept apart here.

How the values were obtained:
[1] = system: anaesthetised rats; experiment: Rhythmic bladder-voiding contractions induced by bladder filling in anaesthetised rats; type: in vivo, rat; conditions: compound alone
Protocol: Female Sprague-Dawley rats weighing 225-275 g (Crl: CDo Br, Charles River Italia) were used. The animals were housed with free access to food and water and maintained on a forced 12-hour alternating light-dark cycle at 22-24° C. for at least one week, except during the experiment. The activity on rhythmic bladder voiding contractions was evaluated according to the method of Dray J., Pharmacol. Methods, 13:157, 1985, with some modifications as in Guarneri (Guarneri, Pharmacol. Res. 27:173, 1993. Briefly, the rats were anaesthetised by subcutaneous injection of 1.25 g/kg (5 ml/kg) urethane, after which the urinary bladder was catheterised via the urethra using PE 50 polyethylene tubing filled with physiological saline. The catheter was tied in place with a ligature around the external urethral orifice and was connected to conventional pressure transducers (Statham P23 ID/P23 XL). […] The bladder was then filled via the recording catheter by incremental volumes of warm (37° C.) saline until reflex bladder-voiding contractions occurred (usually 0.8-1.5 ml). For intravenous injection of bioactive compounds, PE 50 polyethylene tubing filled with physiological saline was inserted into the jugular vein. Tested compounds were administered or co-administered in solution in a final volume of 0.5 ml/kg.
From the cystometrogram, the number of contractions recorded 15 minutes before (basal values) and after treatment, as well as the mean amplitude of these contractions (mean height of the peaks in mmHg), was evaluated.
Since most compounds produced an effect that was relatively rapid in onset and led to a complete cessation of bladder contractions, bioactivity was conveniently estimated by measuring the duration of bladder quiescence (i.e., the length of the time in minutes during which no contractions occurred: disappearance time=DT). The administered doses (alone or in combination) of the tested compounds were chosen on the basis of previously published results obtained with the same compounds in the utilized model (Testa et al., J. Pharmacol. Exp. Ther. 290: 1258, 1999; Leonardi et al., J. Pharmacol. Exp. Ther. 299: 1027, 2001; Testa et al., BJU Int. 87: 256, 2001) or of their affinity for the 5HT1A or 5-HT1B receptor.

[2] = target: T1, human 5HT1A-serotonergic receptor (Homo sapiens, UniProt P08908); experiment: Radioligand binding to recombinant 5-HT1A receptors ([3H]8-OH-DPAT, HeLa cell membranes); conditions: Recordati data on file; read-out: Binding affinity at 5HT1A receptors, Ki
T1 construct: expressed in transfected cells; host or cells: HeLa (human), stably transfected; cell membranes
T1 sequence (P08908 1-422): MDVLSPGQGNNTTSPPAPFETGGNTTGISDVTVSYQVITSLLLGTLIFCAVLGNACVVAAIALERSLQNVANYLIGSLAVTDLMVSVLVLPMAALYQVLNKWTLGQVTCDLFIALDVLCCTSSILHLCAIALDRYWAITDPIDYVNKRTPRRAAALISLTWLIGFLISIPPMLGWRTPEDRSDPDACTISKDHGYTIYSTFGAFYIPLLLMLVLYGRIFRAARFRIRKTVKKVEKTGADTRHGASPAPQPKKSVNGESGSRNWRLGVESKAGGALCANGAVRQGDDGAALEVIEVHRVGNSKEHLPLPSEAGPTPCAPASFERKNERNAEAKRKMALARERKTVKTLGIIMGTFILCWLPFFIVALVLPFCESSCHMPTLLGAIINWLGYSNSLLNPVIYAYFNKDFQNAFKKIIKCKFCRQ
Protocol: Genomic clone G-21 coding for the human 5HT1A-serotonergic receptor was stably transfected in a human cell line (HeLa). HeLa cells were grown as monolayers in Dulbecco's modified Eagle medium (DMEM), containing 10% fetal bovine serum, gentamicin ([…]) and 5% carbon dioxide, at 37° C. The cells were detached from the growth flask at 95% confluence by a cell scraper and were lysed in cold 5 mM Tris and 5 mM EDTA buffer (pH 7.4). The homogenates were centrifuged at 40000×g×20 minutes and the pellets were resuspended in a small volume of cold 5 mM Tris and 5 mM EDTA buffer (pH 7.4) and immediately frozen and stored at −70° C. until use. On the day of experiment, the cell membranes were resuspended in incubation buffer: 50 mM Tris HCl (pH 7.4), 2.5 mM MgCl2, […] (Fargin et al., Nature 335, 358, 1988). The membranes were incubated in a fmal volume of 1 ml for 30 minutes at 30° C. with 1 nM [^3H]8—OH-DPAT, in the absence or presence of the test compounds. Non-specific binding was determined in the presence of 10 μM 5-HT. […]
The affinity of the tested compounds was evaluated as inhibition of specific binding of the radioligand to 5-HT1A receptors (IC50) by using the non-linear curve-fitting program Allfit (De Lean et al., Am. J. Physiol. 235: E97, 1978). […]

[3] = target: T1, human 5HT1A-serotonergic receptor; conditions: literature reference given in table; read-out: Binding affinity at 5HT1A receptors, Ki; cited from earlier work

Cc1nc(-c2ccc(-c3ccc(C(=O)N4CCc5cc6c(cc54)C4(CCN(C)CC4)CO6)cc3)c(C)c2)no1 [SB 224289]
disappearance time (DT) of bladder contractions ([1]; 1.0 mg/kg i.v.): 2.40 ± 0.46 min

COc1ccc(NC(=O)c2ccc(-c3ccc(-c4noc(C)n4)cc3C)cc2)cc1OCCN(C)C [SB 216641]
disappearance time (DT) of bladder contractions ([1]; 0.3 mg/kg i.v.): 1.50 ± 0.28 min

OC(CCN1CCN(c2cccc3[nH]ccc23)CC1)(c1ccccn1)c1ccccn1 [Rec 27/0206, 1-[3-hydroxy-3,3 bis-(2-pyridyl)propyl]-4-(4-indolyl)piperazine]
Ki [2]: 4.75 nM
disappearance time (DT) of bladder contractions ([1]; 0.1 mg/kg i.v.): 9.29 ± 0.80 min

COc1ccccc1N1CCN(CCN(C(=O)C2CCCCC2)c2ccccn2)CC1 [WAY 100635, N-[2-[4-(2-methoxyphenyl)piperazin-1-yl]ethyl]-N-(2-pyridyl)cyclohexanecarboxamide]
disappearance time (DT) of bladder contractions ([1]; 0.01 mg/kg i.v.): 10.39 ± 1.45 min

O=C1c2ccccc2S(=O)(=O)N1CCCCN1CCN(c2cc(Cl)cc3c2OCCO3)CC1 [Rec 0/031 1-DU 125530, 2-[4-[4-(7-chloro-2,3-dihydro-1,4-benzodioxin-5-yl)piperazin-1-yl]butyl]-1,2-benzisothiazol-3(2H)-one 1,1-dioxide]
disappearance time (DT) of bladder contractions ([1]; 0.01 mg/kg i.v.): 6.96 ± 1.05 min

COc1ccccc1N1CCN(CCN(C(=O)C2CCCCC2)c2ccccc2[N+](=O)[O-])CC1 [REC 15/3079, 1-[N-(2-nitrophenyl)-N-cyclohexylcarbonyl-2-aminoethyl]-4-(2-methoxyphenyl)piperazine]
disappearance time (DT) of bladder contractions ([1]; 0.03 mg/kg i.v.): 2.26 ± 0.51 min
Ki [3]: 0.2 nM
